Consider two compounds from ChEMBL document CHEMBL1201862, “PubChem BioAssay data set” (2004).

Common to all, as to assay: growth of human tumour cells (NCI), 48 h
Experiment [1] has as its system NCI-H522.
Experiment [2] concerns SK-OV-3.
Experiment [3] deals with SNB-19.
Experiment [4] relates to U-251.
Experiment [5] relates to A549.
In experiment [6] the test system is ACHN.
Experiment [7] has as its system OVCAR-3.
Experiment [8] deals with HT-29.
The test system of experiment [9] is KM12.
Experiment [10] has as its system SK-MEL-2.
The subject of experiment [11] is TK-10.
Experiment [12] concerns NCI-H226.
For experiment [13], the system named is HCT-15.
In experiment [14] the test system is UO-31.
Experiment [15] relates to Malme-3M.
Experiment [16] relates to K562.
The subject of experiment [17] is OVCAR-5.
The test system of experiment [18] is SR.
Experiment [19] concerns UACC-257.
Experiment [20] relates to SF-268.

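Step 1: Grow cells in 96-well plates. Step 2: Expose to compound for 48 hours at 5 concentrations. Step 3: Interpolate endpoints linearly; if unreached, use highest concentration. Here, GI50 denotes the concentration required for 50% inhibition of growth.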 Activity calls are given as the source filed them. No stated cut-off is given here; in the data, active = GI50 up to about 1.1 µM and inactive = higher.

In the case of `CC1C(=O)N(c2ccccc2)NC12CCCc1ccccc12` (stereo not given), the GI50 in experiment [1], in experiment [2], in [3], in [4], in experiment [5] and in [6] was > 100 µM (inactive) each time. Besides, the GI50 in experiment [7], in experiment [8], in experiment [9], in experiment [10], in [11] and in [12] was > 100 µM (inactive) in each case. The GI50 is over 100 µM in experiment [13]; > 100 µM (inactive) in experiment [14]; > 100 µM (inactive) in experiment [15]; > 100 µM (inactive) in experiment [16]; > 100 µM (inactive) in experiment [17]; > 100 µM (inactive) in experiment [18]. Besides, the GI50 in experiment [19] and in [20] was > 100 µM (inactive) each time.
Regarding `CCN1CCC(O)(/C=C/c2ccc(C)cc2)C(C(=O)/C=C/c2ccc(C)cc2)C1` (stereo not given), the GI50 in experiment [1] is 1.7 µM (inactive); in [2] it was 15.6 µM (inactive); in experiment [3], 9.42 µM (inactive); in experiment [4] it was 3.12 µM (inactive); in [5], 8.24 µM (inactive); in experiment [6], 3.7 µM (inactive). The GI50 in experiment [7] was 6.32 µM (inactive); in experiment [8], 2.61 µM (inactive); in experiment [9] it was 2.19 µM (inactive); in experiment [10], 3.75 µM (inactive); in [11], 5.45 µM (inactive); in experiment [12] it was 15.5 µM (inactive). In addition, the GI50 is 4.06 µM in experiment [13]; 3.85 µM (inactive) in experiment [14]; 6.75 µM (inactive) in experiment [15]; 2.36 µM (inactive) in experiment [16]; 10.5 µM (inactive) in experiment [17]; 2.37 µM (inactive) in experiment [18]. For the same compound, the figures for the GI50 in [19] and in experiment [20] were 12.5 µM (inactive) and 9.57 µM (inactive), respectively.
